For data set [1], the target named is T1, Recombinant androgen receptor ligand binding domain (AR LBD) (Homo sapiens, UniProt P10275).
T1 sequence (P10275 669-900 limits assumed): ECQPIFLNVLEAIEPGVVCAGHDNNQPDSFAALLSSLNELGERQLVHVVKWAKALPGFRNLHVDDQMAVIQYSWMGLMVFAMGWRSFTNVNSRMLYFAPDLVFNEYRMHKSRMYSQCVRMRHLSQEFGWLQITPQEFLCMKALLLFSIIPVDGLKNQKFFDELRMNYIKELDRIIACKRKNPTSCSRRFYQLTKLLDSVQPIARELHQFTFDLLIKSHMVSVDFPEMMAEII
Kind of data set: In vitro competitive radioligand binding assay with [3H]mibolerone.
Experimental: Following incubation, plates were harvested with GF/B filters on the Unifilter-96 Harvester (PerkinElmer) and washed three times with ice-cold buffer B (60 mM Tris, pH 7.2). The filter plates were dried at RT, then 36 μl Microscint-O® cocktail was added to each well and sealed with TopSeal-A®. The receptor bound radioligand was then determined with the TopCount® NXT Microplate Scintillation Counter (PerkinElmer).
The equilibrium binding constant (Ki) of each compound was then determined with the following equation:

The test system of data set [2] is orchidectomized (ORX) male Sprague-Dawley rats. Kind of data set: Anabolic and androgenic activity in castrated (ORX) male rats. Type of data set: in vivo, rat. As to conditions: for Seminal vesicles weight: castrated (ORX) rats, oral gavage; for Anabolic ratio (muscle/prostate weight): castrated rats. Here is the method: Anabolic and androgenic efficacy of compound of formula (I) administered by daily oral gavage were tested. The S-isomer of compound (I) [S-(I)] was synthesized and tested as described herein.
The test article for this study was weighed and dissolved in 10% DMSO (Fischer) diluted with PEG 300 (Acros Organics, NJ) for preparation of the appropriate dosage concentrations. The animals were housed in groups of 2 to 3 animals per cage. Animals were randomly assigned to one of seven groups consisting of 4 to 5 animals per group. Control groups (intact and ORX) were administered vehicle daily. S-(I) was administered via oral gavage at doses of 0.01, 0.03, 0.1, 0.3, 0.75, and 1 mg/day to both intact and ORX groups. Where appropriate, animals were castrated on day one of the study. Treatment with S-(I) began nine days post ORX and was administered daily via oral gavage for fourteen days.
The animals were sacrificed under anesthesia (ketamine/xyalzine, 87:13 mg/kg) and body weights were recorded. In addition, ventral prostate, seminal vesicles, and levator ani muscle were removed, individually weighed, normalized to body weight, and expressed as a percentage of intact control. Student's T-test was used to compare individual dose groups to the intact control group. Significance was defined a priori as a P-value <0.05. Ventral prostate and seminal vesicle weights were evaluated as a measure of androgenic activity, whereas levator ani muscle weight was evaluated as a measure of anabolic activity. Blood was collected from the abdominal aorta, centrifuged, and sera were frozen at −80° C. prior to determination of serum hormone levels. Serum luteinizing hormone (LH) and follicle stimulating hormone (FSH) concentrations were determined.

Data set [3] is described as follows: Metabolic stability measured in human liver microsomes. Type of data set: in vitro ADME. The following applies: for microsomal CLint at 0.6 μM: human, pH 7.4, human liver microsomes. As to the method:
Metabolic stability assays were performed in order to assess the in vitro half-life of the S-isomer of compound of formula (I) [S-(I)] when incubated with human liver microsomes. Intrinsic clearance values were extrapolated. Permeability of the compound across human, intestinal epithelial monolayers (Caco-2 cells) was assessed as a measure of intestinal permeability as well as an indicator of efflux potential. Caco-2 cells are often used as an early screening surrogate for oral bioavailability. Microsomal half-life can be converted to in vitro clearance values as a means to predict hepatic intrinsic clearance. Intrinsic clearance is defined as the functional ability of the liver to metabolize a drug or other compound.
S-(I) in this study was incubated at a final concentration of 0.6 μM. Microsome reactions were performed under either Phase I or “Phase I and II” conditions, where indicated. Compound stocks (10 mM ACN) were initially diluted to a concentration of 60 μM (in 60% ACN/H2O) resulting in a “working stock” solution of 100×. Human liver microsomes were utilized at a final concentration of […]. Duplicate wells were used for each time point (0, 6, 10, 30, and 60 minutes). Reactions were carried out at 37° C. in a shaking water bath, and the final concentration of solvent was kept constant at 0.6%. The final volume for each reaction was 600 μl, comprised of […] of 100 mM KPO4 buffer, (pH 7.4); 12.6 μl of HLM (from a 20 mg/ml stock); 6 μl of 100× “working stock” drug compound, and 126 μl of NRS “master mix” solution. At each time point, 100 μl of reaction was removed and added to a sample well containing 100 μl of ice-cold, 100% ACN (plus internal standards), to stop the reaction. The NRS “master mix” is a solution of glucose 6-phosphate dehydrogenase, NADP^+, MgCl2, and glucose 6-phosphate, prepared per manufacturer's instructions (BD Biosciences, Waltham, Mass.). Each […] stock of NRS “master mix” solution contains 3.8 ml H2O, 1.0 ml solution “A” (Cat. #461220), and 0.2 ml solution “B” (Cat. #461200). Human liver microsomes (lot #0610279, Xenotech Corp.) represented a pool of 60 donors.
Samples were centrifuged at 3,000 rpm for 10 minutes at 4° C. to remove debris and precipitated protein. […] The concentration of parent drug remaining in each well (expressed as percent remaining versus Time ‘0’, at the beginning of the reaction) was measured by LC/MS, as detailed below.
All samples were analyzed on the MDS/Sciex API4000 Q Trap system with electrospray ionization (ESI) in the positive or negative SIM mode, depending on the compounds. […] The percentage of parent drug compound remaining after each time point was determined relative to the initial measured concentration at the beginning of the reaction (T0 min). […]

Like-named read-outs stand apart in the source and are kept apart here.

From patent publication US20180071242A1, “SUBSTITUTED ACYLANILIDES AND METHODS OF USE THEREOF” (University of Tennessee Research Foundation, priority 2006, published 2018) come the findings set out here.

The term Ki denotes the equilibrium dissociation constant of an inhibitor or competing ligand from its target. As a reminder, the half-life is the time in which the quantity being followed falls by half. Turning to `C[C@](O)(COc1ccc(C#N)cc1)C(=O)Nc1ccc(C#N)c(Cl)c1` [S-(I), (S)—N-(3-chloro-4-cyanophenyl)-3-(4-cyanophenoxy)-2-hydroxy-2-methylpropanamide], the Ki in data set [1] stood at 36.9 nM. In addition, the Seminal vesicles weight in data set [2] (0.01 mg/day) is listed as 10%±3%; in data set [2] (0.03 mg/day), 13%±4%; in data set [2] (0.1 mg/day) it was 21%±6%; in data set [2] (0.3 mg/day), 43%±8%; in data set [2] (0.75 mg/day), 51%±9%; in data set [2] (1 mg/day), 69%±14%. The “Anabolic ratio (muscle/prostate weight)” value in data set [2] (0.01 mg/day) was 3.02; in data set [2] (0.03 mg/day), 2.13; in data set [2] (0.1 mg/day), 2.27; in data set [2] (0.3 mg/day), 1.90; in data set [2] (0.75 mg/day), 1.83; in data set [2] (1 mg/day), 1.51. Further, in data set [3] (Phase I only), the “Half Life (minutes) Phase I only” value is on record as “Stable”. For the same compound, the microsomal CLint at 0.6 μM in data set [3] (Phase I + II, read-out: CLint (μl/min/mg) Phase I + II) was 2 µL/min/mg; in data set [3] (Phase I only, read-out: CLint (μl/min/mg) Phase I only) it was less than 1 µL/min/mg. The half-life at 0.6 μM in data set [3] (pH 7.4, Phase I + II) was 5.81 h.
